Experimental data from patent US20080274892A1, “Novel Haloalkylsulfonanilide Derivative, Herbicide, and Method of Use Thereof” (priority 2005, published 2008).

What was measured:
bulrush [1] = test: Test Example 2: herbicidal efficacy on rice paddy weeds post-emergence; type: in vivo, Scirpus juncoides; conditions: post-emergence, one leaf stage, 21 days after treatment
[2] = test system: paddy rice plant (cultivar: Nihonbare); test: Test Example 3: phytotoxicity test for transplanted paddy rice plant; type: in vivo; conditions: transplanted rice, 21 days after treatment
Summary of the method: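 Clay loam soil was placed in a 75 cm^2 plastic pot and flooded to a water depth of 5 cm. Two Nihonbare paddy rice plants at the two-leaf stage were transplanted 1 cm deep and grown in a hot house. After treatment, pots stayed in the hot house for 21 days, and phytotoxicity was then graded against an untreated control.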

barnyard glass = test: Test Example 2: herbicidal efficacy on rice paddy weeds post-emergence; type: in vivo, Echinochloa crus-galli; conditions: post-emergence, one leaf stage, 21 days after treatment
Summary of the method: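 Efficacy on paddy weeds was scored on a 0 to 4 growth-inhibition scale: 4 for 90%-100%, 3 for 70%-89%, 2 for 40%-69%, 1 for 1%-39% and 0 for 0%. Barnyard glass was grown in clay loam in 75 cm^2 pots under 5 cm of water in a hot house. It was compared with untreated pots 21 days after treatment.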

false pimpernel [3] = test: as above; type: in vivo, Lindernia pyxidaria; conditions: post-emergence, one leaf stage, 21 days after treatment
false pimpernel [4] = test: Test Example 1: herbicidal efficacy on rice paddy weeds pre-emergence; type: in vivo, Lindernia pyxidaria; conditions: 21 days
[5] = test system: transplanted paddy rice plant and Bulrush; test: Test Example 5: selectivity between transplanted paddy rice plant and weeds; type: in vivo; conditions: (highest dosage with no phytotoxicity to paddy rice)/(lowest dosage with effective level 4 on Bulrush); rice 3000-100 g/ha, Bulrush 300-10 g/ha; 21 days
Description: (§1) The standard of judgment for herbicidal efficacy (degree of growth inhibition) and phytotoxicity 4 . . . 90%-100% of herbicidal efficacy or phytotoxicity 3 . . . 70%-89% of herbicidal efficacy or phytotoxicity 2 . . . 40%-69% of herbicidal efficacy or phytotoxicity 1 . . . 1%-39% of herbicidal efficacy or phytotoxicity 0 . . . 0% of herbicidal efficacy or phytotoxicity
Phytotoxicity test for transplanted paddy rice plants was carried out, as in Test Example 3, by the treatment of 3000, 1000, 300 and 100 (g/ha of the active ingredient) dosage, and herbicidal test to weed post-emergence was carried out to Burlush seeded as in Test Example 2 treating at 300, 100, 30 and 10 (g/ha) dosage. The pots were kept in a hot house for 21 days after the treatment, and the phytotoxicity and the herbicidal efficacy was investigated and evaluated according to the standard in Test Example 1 by comparing with the untreated control. […] Further, as a comparative compound, the compound No. 6-28 described in the JP-A-2004-107322 was used.

bulrush [6] = test: Test Example 1: herbicidal efficacy on rice paddy weeds pre-emergence; type: in vivo, Scirpus juncoides; conditions: 21 days
bulrush [7] = test: Test Example 4: low dosage test for rice paddy weeds; type: in vivo, Scirpus juncoides; conditions: 300 g/ha as an active ingredient; plants treated at the one leaf stage; 21 days after treatment; vs untreated control
Source text: as §1
A 75 cm^2 plastic pot was filled with soil (clay loam) and planted seeds of bulrush which is a rice paddy weed. After covering the top with 75 cm^3 soil, the pot was filled with water so that the soil submerged under 5 cm depth of water and kept in a hot house. The test plants, at the one leaf stage, were treated with the solution of a formulation containing the compound of the present invention as an active ingredient at the predetermined effective dosage (300 g/ha as an active ingredient). The pots were kept in a hot house for 21 days after the treatment and the herbicidal efficacy was investigated and evaluated according to the standard in Test Example 1 by comparing with the untreated control. Further, as a comparative compound, the compound No. 6-28 described in the JP-A-2004-107322 was used.

[8] = dosage 1000 g/ha, treated 5 days after transplantation

| Compound | Bulrush post (herbicidal efficacy grade) (bulrush [1]; dosage 1000 g/ha) | Phytotoxicity to paddy rice [2, 8] | Burnyard grass post (herbicidal efficacy grade) (barnyard glass; dosage 1000 g/ha) | False pimpernel post (herbicidal efficacy grade) (false pimpernel [3]; dosage 1000 g/ha) | False pimpernel pre (herbicidal efficacy grade) (false pimpernel [4]; dosage 1000 g/ha) | Selective Index [5] | Bulrush pre (herbicidal efficacy grade) (bulrush [6]; dosage 1000 g/ha) | Herbicide effect to Bulrush (bulrush [7]) | Bulrush post (herbicidal efficacy grade) (bulrush [1]; dosage 100 g/ha) | Phytotoxicity to paddy rice ([2]; dosage 100 g/ha as printed in the table line) | Burnyard grass post (herbicidal efficacy grade) (barnyard glass; dosage 100 g/ha) | False pimpernel post (herbicidal efficacy grade) (false pimpernel [3]; dosage 100 g/ha) | False pimpernel pre (herbicidal efficacy grade) (false pimpernel [4]; dosage 100 g/ha) | Bulrush pre (herbicidal efficacy grade) (bulrush [6]; dosage 100 g/ha) | Bulrush post (herbicidal efficacy grade) (bulrush [1]; dosage 300 g/ha) | Phytotoxicity to paddy rice ([2]; dosage 300 g/ha) | Burnyard grass post (herbicidal efficacy grade) (barnyard glass; dosage 300 g/ha) | False pimpernel post (herbicidal efficacy grade) (false pimpernel [3]; dosage 300 g/ha) | False pimpernel pre (herbicidal efficacy grade) (false pimpernel [4]; dosage 300 g/ha) | Bulrush pre (herbicidal efficacy grade) (bulrush [6]; dosage 300 g/ha) |
| --- | --- | --- | --- | --- | --- | --- | --- | --- | --- | --- | --- | --- | --- | --- | --- | --- | --- | --- | --- | --- |
| CC1(C)OC(=O)N(Cc2ccccc2NS(=O)(=O)C(F)(F)F)C1=O [Compound No. 1-187, 5,5-dimethyl-3-[2-(trifluoromethanesulfonylamino)benzyl]oxazolidine-2,4-dione] | 4 (90%-100% of herbicidal efficacy or phytotoxicity) | 3 (70%-89% of herbicidal efficacy or phytotoxicity) | 4 (90%-100% of herbicidal efficacy or phytotoxicity) | 4 (90%-100% of herbicidal efficacy or phytotoxicity) | 4 (90%-100% of herbicidal efficacy or phytotoxicity) | ≧10 | 4 (90%-100% of herbicidal efficacy or phytotoxicity) | 4 (90%-100% of herbicidal efficacy or phytotoxicity) | – | – | – | – | – | – | – | – | – | – | – | – |
| CCCC1(CC)CN(Cc2ccccc2NS(=O)(=O)C(F)(F)F)C(=O)O1 (stereo not drawn) [1-130] | 4 (90%-100% of herbicidal efficacy or phytotoxicity) | 1 (1%-39% of herbicidal efficacy or phytotoxicity) | 4 (90%-100% of herbicidal efficacy or phytotoxicity) | 4 (90%-100% of herbicidal efficacy or phytotoxicity) | 4 (90%-100% of herbicidal efficacy or phytotoxicity) | 10 | 4 (90%-100% of herbicidal efficacy or phytotoxicity) | 4 (90%-100% of herbicidal efficacy or phytotoxicity) | – | – | – | – | – | – | – | – | – | – | – | – |
| COCCOC(=O)N(c1ccccc1CN1CC(C)(C)OC1=O)S(=O)(=O)C(F)(F)F [1-81] | 4 (90%-100% of herbicidal efficacy or phytotoxicity) | 2 (40%-69% of herbicidal efficacy or phytotoxicity) | 4 (90%-100% of herbicidal efficacy or phytotoxicity) | 4 (90%-100% of herbicidal efficacy or phytotoxicity) | 4 (90%-100% of herbicidal efficacy or phytotoxicity) | 30 | 4 (90%-100% of herbicidal efficacy or phytotoxicity) | 4 (90%-100% of herbicidal efficacy or phytotoxicity) | – | – | – | – | – | – | – | – | – | – | – | – |
| CCCCC1(C)CN(Cc2ccccc2N(C(=O)OCC)S(=O)(=O)C(F)(F)F)C(=O)O1 (stereo not drawn) [1-129] | – | – | – | – | – | 10 | – | 4 (90%-100% of herbicidal efficacy or phytotoxicity) | 4 (90%-100% of herbicidal efficacy or phytotoxicity) | 1 (1%-39% of herbicidal efficacy or phytotoxicity) | 3 (70%-89% of herbicidal efficacy or phytotoxicity) | 3 (70%-89% of herbicidal efficacy or phytotoxicity) | 4 (90%-100% of herbicidal efficacy or phytotoxicity) | 2 (40%-69% of herbicidal efficacy or phytotoxicity) | – | – | – | – | – | – |
| CC(C)COC(=O)N(c1ccccc1CN1C(=O)OCC1C)S(=O)(=O)C(F)(F)F (stereo not drawn) [1-4] | 4 (90%-100% of herbicidal efficacy or phytotoxicity) | 2 (40%-69% of herbicidal efficacy or phytotoxicity) | 4 (90%-100% of herbicidal efficacy or phytotoxicity) | 4 (90%-100% of herbicidal efficacy or phytotoxicity) | 4 (90%-100% of herbicidal efficacy or phytotoxicity) | 10 | 4 (90%-100% of herbicidal efficacy or phytotoxicity) | 4 (90%-100% of herbicidal efficacy or phytotoxicity) | – | – | – | – | – | – | – | – | – | – | – | – |
| CC1(C2CC2)CN(Cc2ccccc2NS(=O)(=O)C(F)(F)F)C(=O)O1 (stereo not drawn) [1-71] | 4 (90%-100% of herbicidal efficacy or phytotoxicity) | 1 (1%-39% of herbicidal efficacy or phytotoxicity) | 4 (90%-100% of herbicidal efficacy or phytotoxicity) | 4 (90%-100% of herbicidal efficacy or phytotoxicity) | 4 (90%-100% of herbicidal efficacy or phytotoxicity) | 10 | 4 (90%-100% of herbicidal efficacy or phytotoxicity) | 4 (90%-100% of herbicidal efficacy or phytotoxicity) | – | – | – | – | – | – | – | – | – | – | – | – |
| CC1(C2(C)CN(Cc3ccccc3NS(=O)(=O)C(F)(F)F)C(=O)O2)CC1 (stereo not drawn) [1-167] | 4 (90%-100% of herbicidal efficacy or phytotoxicity) | 1 (1%-39% of herbicidal efficacy or phytotoxicity) | 4 (90%-100% of herbicidal efficacy or phytotoxicity) | 4 (90%-100% of herbicidal efficacy or phytotoxicity) | 4 (90%-100% of herbicidal efficacy or phytotoxicity) | ≧10 | 4 (90%-100% of herbicidal efficacy or phytotoxicity) | 4 (90%-100% of herbicidal efficacy or phytotoxicity) | – | – | – | – | – | – | – | – | – | – | – | – |
| COC(=O)N(c1ccccc1CN1CC(C)(C(C)C)OC1=O)S(=O)(=O)C(F)(F)F (racemic) [1-114] | 4 (90%-100% of herbicidal efficacy or phytotoxicity) | 2 (40%-69% of herbicidal efficacy or phytotoxicity) | 4 (90%-100% of herbicidal efficacy or phytotoxicity) | 4 (90%-100% of herbicidal efficacy or phytotoxicity) | 4 (90%-100% of herbicidal efficacy or phytotoxicity) | 30 | 4 (90%-100% of herbicidal efficacy or phytotoxicity) | 4 (90%-100% of herbicidal efficacy or phytotoxicity) | – | – | – | – | – | – | – | – | – | – | – | – |
| CC[C@@H]1CN(Cc2ccccc2N(C(=O)OCC(C)C)S(=O)(=O)C(F)(F)F)C(=O)O1 [1-58] | 4 (90%-100% of herbicidal efficacy or phytotoxicity) | 1 (1%-39% of herbicidal efficacy or phytotoxicity) | 4 (90%-100% of herbicidal efficacy or phytotoxicity) | 4 (90%-100% of herbicidal efficacy or phytotoxicity) | 4 (90%-100% of herbicidal efficacy or phytotoxicity) | ≧30 | 4 (90%-100% of herbicidal efficacy or phytotoxicity) | 4 (90%-100% of herbicidal efficacy or phytotoxicity) | – | – | – | – | – | – | – | – | – | – | – | – |
| CC1(C(F)(F)F)CN(Cc2ccccc2NS(=O)(=O)C(F)(F)F)C(=O)O1 (stereo not drawn) [1-135] | – | – | – | – | – | 3 | – | 3 (70%-89% of herbicidal efficacy or phytotoxicity) | – | – | – | – | – | – | 4 (90%-100% of herbicidal efficacy or phytotoxicity) | 1 (1%-39% of herbicidal efficacy or phytotoxicity) | 2 (40%-69% of herbicidal efficacy or phytotoxicity) | 4 (90%-100% of herbicidal efficacy or phytotoxicity) | 4 (90%-100% of herbicidal efficacy or phytotoxicity) | 4 (90%-100% of herbicidal efficacy or phytotoxicity) |
| COC(=O)N(c1ccccc1CN1CC(C)OC1=O)S(=O)(=O)C(F)(F)F (racemic) [1-54] | 4 (90%-100% of herbicidal efficacy or phytotoxicity) | 0 (0% of herbicidal efficacy or phytotoxicity) | 4 (90%-100% of herbicidal efficacy or phytotoxicity) | – | 4 (90%-100% of herbicidal efficacy or phytotoxicity) | 33.3 | 4 (90%-100% of herbicidal efficacy or phytotoxicity) | 4 (90%-100% of herbicidal efficacy or phytotoxicity) | – | – | – | – | – | – | – | – | – | – | – | – |
